In US11802120B2, “Fused cyclic urea derivatives as CRHR2 antagonist” (RaQualia Pharma Inc., priority 2018, dated 2023) one finds IC50 data, which are given here for one compound.

What all share (assay type): cell-based
The target of one experiment is T1, human CRHR1-beta (Homo sapiens, UniProt P34998).
T1 sequence (P34998 24-444 isoform P34998-1 limits assumed): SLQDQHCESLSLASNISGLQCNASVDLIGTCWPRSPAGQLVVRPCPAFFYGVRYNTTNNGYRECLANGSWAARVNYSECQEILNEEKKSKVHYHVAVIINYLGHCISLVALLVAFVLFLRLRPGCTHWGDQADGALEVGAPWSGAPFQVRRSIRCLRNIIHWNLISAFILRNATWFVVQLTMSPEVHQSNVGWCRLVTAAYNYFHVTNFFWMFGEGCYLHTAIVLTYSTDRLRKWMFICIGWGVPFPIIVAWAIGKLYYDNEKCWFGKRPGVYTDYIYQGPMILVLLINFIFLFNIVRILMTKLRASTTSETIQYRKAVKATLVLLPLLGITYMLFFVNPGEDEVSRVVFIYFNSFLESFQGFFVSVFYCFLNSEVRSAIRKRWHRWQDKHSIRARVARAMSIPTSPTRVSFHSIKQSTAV
Description: cAMP functional assay for human CRHR1 (LANCE Ultra cAMP, TR-FRET). As to conditions: CHO-K1 cells expressing human CRHR1-beta, agonist CRF at EC80, cAMP; read-out: IC50 against CRHR1. How it is done: cAMP functional assay for human CRHR1 and CRHR2
The ability of the compounds of this invention to inhibit either CRHR2 or CRHR1 is assessed by 3′,5′-cyclic adenosine monophosphate (cAMP) production in cells using the LANCE Ultra cAMP assay kit (ParkinElmer), which are designed based on the homogeneous time-resolved fluorescence resonance energy transfer (TR-FRET) immunoassay.
CHO-K1 (Chinese hamster ovary) cells stably expressing either human CRHR2-alpha (DiscoveRX, Cat. 95-0048C2) or human CRHR1-beta (DiscoveRX, Cat. 95-0047C2) are grown in HAM's F12 media supplemented with 10% fetal bovine serum (FBS), 100 units/mL penicillin, 100 microg/mL hygromycin and 0.5 microg/mL geneticin at 37° C. in 5% CO2 humidified incubator to 80% confluence. After 7 hours starvation treatment in culture media containing 0.1% FBS, the cells are washed with Hanks balanced salt solution (HBSS) and cryopreserved.
For cAMP assay, frozen cells are thawed and washed with HBSS, followed by resuspended in assay buffer (HBSS containing 0.1% bovine serum albumin, 0.5 mM isobutylmethylxanthine and 5 mM Hepes, pH 7.4) at the appropriate concentration for the assay. The cell suspensions are plated on 384-well microplates (Greiner Bio-One) at a density of 4,000 cells per well. After preincubating the cells with various concentrations of the compounds for 30 min at 25° C., an assay buffer containing EC80 concentration of each agonist is added and the cells are incubated for 30 min at 25° C. Human urocortin2 (Peptide Institute) and CRF (Peptide Institute) are used as agonists for CRHR2 and CRHR1, respectively. For the termination of assay, europium-labeled cAMP tracer and ULight (registered trademark) dye labeled cAMP antibodies, both prepared with Lance-Ultra cAMP detection reagent (Perkin Elmer) are added in the plate and incubate for 60 min at 25° C. After incubation, TR-FRET signal is detected by EnVision plate reader (PerkinElmer). The IC50 values for compounds are calculated from dose-response curves by fitting the percent inhibition using XLfit (ID Business Solutions).
(Time-resolved FRET reads energy transfer from a long-lived donor to a nearby acceptor.)

In the next experiment the target is T2, human CRHR2-alpha (Homo sapiens, UniProt Q13324).
T2 sequence (Q13324 1-411): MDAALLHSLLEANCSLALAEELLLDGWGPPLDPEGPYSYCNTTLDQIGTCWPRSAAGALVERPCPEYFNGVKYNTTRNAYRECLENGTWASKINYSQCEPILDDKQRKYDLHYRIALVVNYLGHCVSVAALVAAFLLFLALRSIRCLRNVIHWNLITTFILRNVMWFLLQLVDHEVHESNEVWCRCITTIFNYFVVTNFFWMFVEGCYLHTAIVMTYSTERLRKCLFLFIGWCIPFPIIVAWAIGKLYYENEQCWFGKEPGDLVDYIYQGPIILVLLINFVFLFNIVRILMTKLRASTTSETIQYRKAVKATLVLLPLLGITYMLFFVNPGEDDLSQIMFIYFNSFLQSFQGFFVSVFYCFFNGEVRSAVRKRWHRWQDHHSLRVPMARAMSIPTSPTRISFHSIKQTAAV
Description: cAMP functional assay for human CRHR2 (LANCE Ultra cAMP, TR-FRET). As to conditions: CHO-K1 cells expressing human CRHR2-alpha, agonist human urocortin2 at EC80, cAMP; read-out: IC50 against CRHR2. An outline of the steps: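 Antagonism measured in CHO-K1 cells stably expressing the receptor, serum-starved 7 h then cryopreserved. Thawed cells in HBSS buffer with 0.1% BSA, 0.5 mM IBMX, 5 mM Hepes pH 7.4 were preincubated with compound 30 min at 25° C, then stimulated 30 min with EC80 agonist: urocortin2 for CRHR2, CRF for CRHR1.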

The next experiment concerns the target T3, CRHR2 (Homo sapiens, UniProt Q13324).
T3 sequence (Q13324 1-411): T2 sequence (Q13324 1-411)
In words: CRHR2 antagonistic activity (inhibitory activity against CRHR2).

Turning to `COc1ccc(-n2c(=O)n(C[C@H]3CC[C@H](NC(=O)c4cc(Cl)cnc4C)CC3)c3ccccc32)cn1` [Example 30, 5-chloro-N-((1r,4r)-4-((3-(6-methoxypyridin-3-yl)-2-oxo-2,3-dihydro-1H-benzo[d]imidazol-1-yl)methyl)cyclohexyl)-2-methylnicotinamide], the IC50 (in general, the concentration at which inhibition is half-maximal) is below 1000 nM on human CRHR1-beta, below 300 nM on human CRHR2-alpha and 60 nM against CRHR2.
